Among the data in US20040142948A1, “Sulfonamides” (priority 2003, published 2004) are Ki values, retold here.

Molecules are shown by their SMILES.

The target in this test is T1, HEK-293 cell membranes containing stable cloned human and rat GPR-14 (UniProt Q9UKP6).
T1 sequence (Q9UKP6 1-389): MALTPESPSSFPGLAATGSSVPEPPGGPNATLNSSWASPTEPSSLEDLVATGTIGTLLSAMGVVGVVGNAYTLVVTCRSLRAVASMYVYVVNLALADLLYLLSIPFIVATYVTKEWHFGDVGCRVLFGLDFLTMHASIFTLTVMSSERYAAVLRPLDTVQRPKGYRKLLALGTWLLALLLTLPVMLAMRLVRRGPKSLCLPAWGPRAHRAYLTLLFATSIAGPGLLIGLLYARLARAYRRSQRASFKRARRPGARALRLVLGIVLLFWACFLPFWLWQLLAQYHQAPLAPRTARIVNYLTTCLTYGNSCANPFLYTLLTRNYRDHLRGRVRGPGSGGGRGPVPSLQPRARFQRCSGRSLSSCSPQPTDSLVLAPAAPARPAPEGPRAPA
Description: Radioligand binding ([125I] h-U-II). The settings on record: [125I] h-U-II 200 pM, species of GPR-14 (human or rat) not given. Here is the method: HEK-293 cell membranes containing stable cloned human and rat GPR-14 (20 ug/assay) were incubated with 200 pM [125I] h-U-II (200 Ci/mmol^−1 in the presence of increasing concentrations of test compounds in DMSO (0.1 nM to 10 uM), in a final incubation volume of 200 ul (20 mM Tris-HCl, 5 mM MgCl2). Incubation was done for 30 minutes at room temperature followed by filtration GF/B filters with Brandel cell harvester. ^125I labeled U-II binding was quantitated by gamma counting. Nonspecific binding was defined by ^125I U-II binding in the presence of 100 nM of unlabeled human U-II. Analysis of the data was performed by nonlinear least square fitting.

`CN1CC[C@@H](Oc2cc(NS(=O)(=O)c3cccc4nsnc34)ccc2Cl)C1` [Example 3, (R)-N-[4-Chloro-3-(1-methyl-3-pyr-rolidinyloxy)-phenyl]-ben-zo[1,2,5]thiadiazole-1-sulfonamide] gave a Ki of 230 nM.

The Ki is a measure of affinity in units of concentration, obtained from inhibition or displacement.
